Reference: PubChem BioAssay (NCI)
“And” between values parts separate entries of the source, which are not always exact repeats. Identical values can stand only once.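 The compound was tested at five concentrations on cells cultured in 96-well plates, with a 48-hour exposure period. GI50 marks 50% less growth. The concentration for full growth arrest is given as TGI.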

Assays:
Experiment in all cases: DTP human tumour cell line panel, 48 h
CAKI-1 renal = tested on: CAKI-1 renal
DU-145 prostate = tested on: DU-145 prostate
HCT-15 colon = tested on: HCT-15 colon
LOX IMVI melanoma = tested on: LOX IMVI melanoma
MDA-MB-231 breast = tested on: MDA-MB-231 breast
NCI-H226 lung = tested on: NCI-H226 lung
RPMI-8226 leukemia = tested on: RPMI-8226 leukemia
SK-MEL-2 melanoma = tested on: SK-MEL-2 melanoma
SN12C renal = tested on: SN12C renal
TK-10 renal = tested on: TK-10 renal

SMILES	GI50 (CAKI-1 renal) [µM]	TGI (CAKI-1 renal)	GI50 (DU-145 prostate) [µM]	TGI (DU-145 prostate) [µM]	GI50 (HCT-15 colon) [µM]	TGI (HCT-15 colon)	GI50 (LOX IMVI melanoma) [µM]	TGI (LOX IMVI melanoma) [µM]	GI50 (MDA-MB-231 breast) [µM]	TGI (MDA-MB-231 breast) [µM]	GI50 (NCI-H226 lung) [µM]	TGI (NCI-H226 lung) [µM]	GI50 (RPMI-8226 leukemia) [µM]	TGI (RPMI-8226 leukemia)	GI50 (SK-MEL-2 melanoma) [µM]	TGI (SK-MEL-2 melanoma)	GI50 (SN12C renal) [µM]	TGI (SN12C renal)	GI50 (TK-10 renal) [µM]	TGI (TK-10 renal) [µM]
S=C(Nc1ccc(Cl)cc1)Nc1ccc(-c2nc3ccccc3s2)cc1	10.8	28 µM	13.6	30	23.5	> 100 µM	24.3	> 100	15.3	34.3	17.9	47.4	20.9	64.5 µM	21	40.2 µM	15.4	35 µM	15.1	44.5
CCOC(=O)c1ccc(NC(=O)Oc2ccc3c(C)cc(=O)oc3c2)cc1		> 100 µM		> 100		> 100 µM		> 100		82.8		81.3		72.9 µM		79 µM		> 100 µM		> 100
COc1cccc(CC(C)=C(c2ccc(OCCN(C)C)cc2)c2ccc(OCCN(C)C)cc2)c1	3.96	8.27 µM	3.86	8.26	0.974	3.6 µM	0.604	1.16	1.1	4.69	4.8	10.4	0.842	2.24 µM	5.19	10.9 µM	4.19	8.69 µM	5.43	10.3
COc1cc(C(=O)N2CCN(C=O)C2=S)cc(OC)c1OC	13.6	26.7 µM	19.6	56.6	25.6	73.6 µM	16.4	33.5	21.5	57.9	35.9	84.6		42.3 µM	19.9	42 µM	20.2	40.2 µM	17.1	36.7
c1ccc(-c2nnc(-c3ccccn3)s2)nc1	> 100	> 100 µM	> 100	> 100	83.7	> 100 µM	> 100	> 100	72.5	> 100	> 100	> 100	> 100	> 100 µM	> 100	> 100 µM	> 100	> 100 µM	> 100	> 100
COC(=O)c1ccc2c(c1)nc(NC(=O)c1ccccc1)n2CCCc1ccccc1	3.57	> 100 µM	11.5	> 100	1.89	> 100 µM	2.63	> 100	6.26	> 100	11.2	> 100	5.31	> 100 µM	5.58	> 100 µM	17.6	> 100 µM	8.86	> 100
COC(=O)C[C@](O)(CCCC(C)(C)O)C(=O)O[C@@H]1C(OC)=C[C@]23CCCN2CCc2cc4c(cc2[C@H]13)OCO4	0.252	1.61 µM and 1.2 µM	0.0343		0.0944	1.85 µM and 4.71 µM	0.0129		0.087		0.0112		0.0288	0.419 µM and 0.84 µM	0.0455	0.994 µM and 0.198 µM	0.0405	0.666 µM and 0.526 µM	0.0347	
